{"source": "patent US9340590B2", "about": "(priority 2011, dated 2016)", "test_in_all_cases": "cell-based", "key": {"[1]": {"target": "hNav1.7 (Homo sapiens, UniProt Q15858)", "sequence (Q15858 whole entry, looked up)": "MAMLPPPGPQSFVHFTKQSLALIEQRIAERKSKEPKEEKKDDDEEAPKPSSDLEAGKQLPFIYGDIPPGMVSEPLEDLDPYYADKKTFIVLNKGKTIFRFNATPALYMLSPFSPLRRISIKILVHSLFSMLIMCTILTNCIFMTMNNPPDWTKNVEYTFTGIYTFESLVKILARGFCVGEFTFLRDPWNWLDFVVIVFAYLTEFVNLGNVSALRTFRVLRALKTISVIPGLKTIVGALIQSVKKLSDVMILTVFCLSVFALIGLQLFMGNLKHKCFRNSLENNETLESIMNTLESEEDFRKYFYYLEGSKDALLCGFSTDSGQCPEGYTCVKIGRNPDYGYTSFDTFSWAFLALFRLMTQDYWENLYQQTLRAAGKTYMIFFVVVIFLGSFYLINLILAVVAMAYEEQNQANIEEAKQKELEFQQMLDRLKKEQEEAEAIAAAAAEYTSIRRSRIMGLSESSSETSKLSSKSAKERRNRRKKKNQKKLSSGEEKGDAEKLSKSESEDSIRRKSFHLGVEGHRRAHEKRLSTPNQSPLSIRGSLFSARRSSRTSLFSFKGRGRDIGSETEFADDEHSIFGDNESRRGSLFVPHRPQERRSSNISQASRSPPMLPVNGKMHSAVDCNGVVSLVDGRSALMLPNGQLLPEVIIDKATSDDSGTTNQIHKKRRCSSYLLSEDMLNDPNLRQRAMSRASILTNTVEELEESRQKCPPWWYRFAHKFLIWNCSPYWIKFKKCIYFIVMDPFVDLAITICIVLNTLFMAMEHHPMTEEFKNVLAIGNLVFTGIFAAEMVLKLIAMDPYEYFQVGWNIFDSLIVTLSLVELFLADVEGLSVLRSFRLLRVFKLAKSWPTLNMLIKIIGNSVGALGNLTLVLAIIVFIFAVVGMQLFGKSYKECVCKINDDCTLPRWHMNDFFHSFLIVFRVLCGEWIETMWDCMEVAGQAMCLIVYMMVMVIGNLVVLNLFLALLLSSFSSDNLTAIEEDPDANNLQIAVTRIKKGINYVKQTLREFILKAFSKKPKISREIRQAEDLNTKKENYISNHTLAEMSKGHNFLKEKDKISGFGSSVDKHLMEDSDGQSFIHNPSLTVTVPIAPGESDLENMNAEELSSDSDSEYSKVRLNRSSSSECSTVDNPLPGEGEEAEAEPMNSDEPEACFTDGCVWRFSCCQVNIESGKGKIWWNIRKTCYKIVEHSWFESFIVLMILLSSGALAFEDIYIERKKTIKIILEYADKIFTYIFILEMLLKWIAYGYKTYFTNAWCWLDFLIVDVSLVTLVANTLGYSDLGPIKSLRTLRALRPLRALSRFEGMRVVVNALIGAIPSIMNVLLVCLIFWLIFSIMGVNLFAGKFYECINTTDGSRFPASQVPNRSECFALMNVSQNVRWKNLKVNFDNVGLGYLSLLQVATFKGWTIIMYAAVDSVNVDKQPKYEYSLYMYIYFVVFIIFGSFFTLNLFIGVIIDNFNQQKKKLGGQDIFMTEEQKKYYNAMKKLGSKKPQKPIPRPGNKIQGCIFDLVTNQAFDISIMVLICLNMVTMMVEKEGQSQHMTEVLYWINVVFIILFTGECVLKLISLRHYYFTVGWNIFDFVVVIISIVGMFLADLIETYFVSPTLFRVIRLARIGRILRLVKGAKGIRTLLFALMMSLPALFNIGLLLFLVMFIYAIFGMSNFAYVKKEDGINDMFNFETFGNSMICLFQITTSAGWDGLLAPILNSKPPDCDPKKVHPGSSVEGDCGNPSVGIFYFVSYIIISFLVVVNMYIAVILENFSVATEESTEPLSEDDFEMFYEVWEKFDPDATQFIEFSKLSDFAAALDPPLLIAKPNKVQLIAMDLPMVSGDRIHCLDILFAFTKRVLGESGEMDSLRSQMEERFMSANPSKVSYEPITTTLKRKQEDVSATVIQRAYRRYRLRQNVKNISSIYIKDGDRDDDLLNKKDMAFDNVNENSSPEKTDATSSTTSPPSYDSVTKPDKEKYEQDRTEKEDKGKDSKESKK", "type": "cell-based"}, "[2]": {"target": "hNav1.5 (Homo sapiens, UniProt Q14524)"}, "[3]": {"target": "hNav1.3 (Homo sapiens, UniProt Q9NY46)", "sequence (Q9NY46 whole entry, looked up)": "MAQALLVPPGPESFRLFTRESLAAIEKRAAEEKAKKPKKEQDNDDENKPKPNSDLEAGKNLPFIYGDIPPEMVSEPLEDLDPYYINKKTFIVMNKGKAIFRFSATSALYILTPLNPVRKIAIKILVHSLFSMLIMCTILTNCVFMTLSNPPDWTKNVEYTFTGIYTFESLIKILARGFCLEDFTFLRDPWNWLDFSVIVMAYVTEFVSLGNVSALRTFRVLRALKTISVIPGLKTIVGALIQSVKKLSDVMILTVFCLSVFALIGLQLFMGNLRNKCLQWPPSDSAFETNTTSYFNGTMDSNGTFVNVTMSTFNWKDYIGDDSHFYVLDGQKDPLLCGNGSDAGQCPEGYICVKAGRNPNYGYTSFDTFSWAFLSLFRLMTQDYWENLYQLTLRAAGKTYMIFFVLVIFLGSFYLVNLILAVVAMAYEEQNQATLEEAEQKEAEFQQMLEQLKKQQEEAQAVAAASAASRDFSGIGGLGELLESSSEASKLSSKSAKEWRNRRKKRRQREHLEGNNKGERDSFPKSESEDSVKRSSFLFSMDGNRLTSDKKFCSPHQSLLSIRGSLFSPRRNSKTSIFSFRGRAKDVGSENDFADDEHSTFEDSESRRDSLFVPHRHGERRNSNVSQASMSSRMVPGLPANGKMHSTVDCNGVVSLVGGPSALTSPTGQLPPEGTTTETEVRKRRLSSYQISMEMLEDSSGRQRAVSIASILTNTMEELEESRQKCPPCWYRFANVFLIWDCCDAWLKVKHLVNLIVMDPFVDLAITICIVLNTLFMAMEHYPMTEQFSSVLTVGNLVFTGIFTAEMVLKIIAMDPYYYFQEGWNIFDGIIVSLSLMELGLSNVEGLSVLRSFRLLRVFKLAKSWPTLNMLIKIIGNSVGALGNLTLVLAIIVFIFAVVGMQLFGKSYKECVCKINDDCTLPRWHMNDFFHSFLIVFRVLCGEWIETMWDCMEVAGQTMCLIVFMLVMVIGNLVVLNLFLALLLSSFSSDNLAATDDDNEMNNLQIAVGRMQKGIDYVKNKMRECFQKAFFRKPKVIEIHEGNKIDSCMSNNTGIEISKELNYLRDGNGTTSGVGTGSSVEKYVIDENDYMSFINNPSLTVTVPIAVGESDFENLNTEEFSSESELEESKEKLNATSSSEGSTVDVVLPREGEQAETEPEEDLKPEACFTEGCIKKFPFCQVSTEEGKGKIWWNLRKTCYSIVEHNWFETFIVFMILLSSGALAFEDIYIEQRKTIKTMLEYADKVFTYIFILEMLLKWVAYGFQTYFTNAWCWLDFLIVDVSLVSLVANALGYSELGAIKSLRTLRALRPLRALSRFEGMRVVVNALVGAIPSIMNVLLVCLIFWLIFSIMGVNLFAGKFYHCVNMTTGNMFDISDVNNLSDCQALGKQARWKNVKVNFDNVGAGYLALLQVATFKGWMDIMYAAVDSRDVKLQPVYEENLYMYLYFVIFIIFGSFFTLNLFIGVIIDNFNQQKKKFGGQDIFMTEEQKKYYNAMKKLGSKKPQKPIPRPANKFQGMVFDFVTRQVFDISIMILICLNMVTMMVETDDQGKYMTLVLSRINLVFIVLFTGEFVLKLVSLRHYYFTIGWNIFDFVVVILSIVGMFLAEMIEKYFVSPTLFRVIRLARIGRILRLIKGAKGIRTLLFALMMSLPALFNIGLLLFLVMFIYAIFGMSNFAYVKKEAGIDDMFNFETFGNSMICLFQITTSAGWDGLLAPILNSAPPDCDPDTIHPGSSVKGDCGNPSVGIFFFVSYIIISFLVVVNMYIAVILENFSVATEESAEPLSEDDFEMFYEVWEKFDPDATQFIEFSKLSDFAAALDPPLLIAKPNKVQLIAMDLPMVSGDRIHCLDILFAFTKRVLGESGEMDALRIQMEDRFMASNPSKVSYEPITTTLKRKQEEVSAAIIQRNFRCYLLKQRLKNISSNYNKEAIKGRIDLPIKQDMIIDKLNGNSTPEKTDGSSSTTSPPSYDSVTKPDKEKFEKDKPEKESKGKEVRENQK"}}, "note": "Where two headings read alike, the source gives them in different places. Positions of bridges follow the written chain, without caps; N, C: chain ends. Residues, ends and D or L forms follow the SMILES beside them."}
{"smiles": "CC[C@H](C)[C@@H]1NC(=O)[C@@H]2CSSC[C@@H]3NC(=O)[C@H](C(C)C)NC(=O)[C@H](CC(C)C)NC(=O)[C@H](CC(N)=O)NC(=O)[C@@H]4CCCN4C(=O)[C@H](CCCNC(=N)N)NC(=O)[C@H](CSSC[C@H](NC(=O)[C@@H](N)CC(=O)O)C(=O)N[C@@H](CC(C)C)C(=O)NCC(=O)N[C@@H](Cc4ccccc4)C(=O)N[C@@H](CCSC)C(=O)N[C@@H](CCCNC(=N)N)C(=O)N[C@@H](CCCCN)C(=O)N2)NC(=O)[C@H](CSSC[C@@H](C(=O)N[C@@H](CCCCN)C(=O)N[C@@H](Cc2ccc(O)cc2)C(=O)N[C@H](C(=O)N[C@@H](Cc2ccccc2)C(N)=O)C(C)C)NC(=O)[C@H](Cc2c[nH]c4ccccc24)NC(=O)[C@H](CCCCN)NC(=O)[C@H](Cc2cnc[nH]2)NC(=O)[C@H](CCCCN)NC(=O)[C@H](CCCNC(=N)N)NC(=O)[C@H](CO)NC3=O)NC(=O)[C@H](CCCCN)NC(=O)[C@H](CC(=O)O)NC(=O)[C@H](CC(N)=O)NC(=O)[C@H](CC(=O)O)NC(=O)[C@@H]2CCCN2C1=O", "note": "[compound 54] (H-DCLGFMRKCIPDNDKCCRPNLVCSRKHKWCKYVF-NH2; disulfide 2-17, 9-23, 16-30)", "values": [{"measurement": "IC50", "setting": "[1]; Table 22, IonWorks Quattro, use, […], read-out: IWQ Use Nav1.7", "result": 0.05, "unit": "µM"}, {"measurement": "IC50", "setting": "[2]; Table 22, IonWorks Quattro, use, […], read-out: IWQ Use Nav1.5", "result": 7.96, "unit": "µM"}, {"measurement": "IC50", "setting": "[3]; Table 22, IonWorks Quattro, use, […], read-out: IWQ Use Nav1.3", "result": 0.02, "unit": "µM"}]}
{"smiles": "CC[C@H](C)[C@@H]1NC(=O)[C@@H]2CSSC[C@@H]3NC(=O)[C@H](C(C)C)NC(=O)[C@H](CC(C)C)NC(=O)[C@H](CC(N)=O)NC(=O)[C@@H]4CCCN4C(=O)[C@H](CCCNC(=N)N)NC(=O)[C@H](CSSC[C@H](NC(=O)[C@@H](N)CC(=O)O)C(=O)N[C@@H](CC(C)C)C(=O)NCC(=O)N[C@@H](Cc4ccccc4)C(=O)N[C@@H](CCSC)C(=O)N[C@@H](CCCNC(=N)N)C(=O)N[C@@H](CCCCN)C(=O)N2)NC(=O)[C@H](CSSC[C@@H](C(=O)N[C@@H](CCCCN)C(=O)N[C@@H](Cc2ccc(O)cc2)C(=O)N[C@H](C(=O)N[C@@H](Cc2ccccc2)C(N)=O)C(C)C)NC(=O)[C@H](Cc2c[nH]c4ccccc24)NC(=O)[C@H](CCCCN)NC(=O)[C@H](CCCCN)NC(=O)[C@H]([C@@H](C)O)NC(=O)[C@H](CCCNC(=N)N)NC(=O)[C@H](CO)NC3=O)NC(=O)[C@H](CCCCN)NC(=O)[C@H](CC(=O)O)NC(=O)[C@H](CC(N)=O)NC(=O)[C@H](CC(=O)O)NC(=O)[C@@H]2CCCN2C1=O", "note": "[compound 55] (H-DCLGFMRKCIPDNDKCCRPNLVCSRTKKWCKYVF-NH2; disulfide 2-17, 9-23, 16-30)", "values": [{"measurement": "IC50", "setting": "[1]; Table 23, IonWorks Quattro, use, […], read-out: IWQ Use Nav1.7", "result": 1.51, "unit": "µM"}, {"measurement": "IC50", "setting": "[2]; Table 23, IonWorks Quattro, use, […], read-out: IWQ Use Nav1.5", "result": 11.5, "unit": "µM"}, {"measurement": "IC50", "setting": "[3]; Table 23, IonWorks Quattro, use, […], read-out: IWQ Use Nav1.3", "result": 2.48, "unit": "µM"}]}
{"smiles": "CC[C@H](C)[C@@H]1NC(=O)[C@@H]2CSSC[C@@H]3NC(=O)[C@H](C(C)C)NC(=O)[C@H](CC(C)C)NC(=O)[C@H](CC(N)=O)NC(=O)[C@@H]4CCCN4C(=O)[C@H](CCCNC(=N)N)NC(=O)[C@H](CSSC[C@H](NC(=O)[C@@H](N)CC(=O)O)C(=O)N[C@@H](CC(C)C)C(=O)NCC(=O)N[C@@H](Cc4ccccc4)C(=O)N[C@@H](CCSC)C(=O)N[C@@H](CCCNC(=N)N)C(=O)N[C@@H](CCCCN)C(=O)N2)NC(=O)[C@H](CSSC[C@@H](C(=O)N[C@@H](CCCCN)C(=O)N[C@@H](Cc2ccc(O)cc2)C(=O)N[C@H](C(=O)N[C@@H](Cc2ccccc2)C(N)=O)C(C)C)NC(=O)[C@H](CCCCN)NC(=O)[C@H](CCCCN)NC(=O)[C@H](Cc2cnc[nH]2)NC(=O)[C@H]([C@@H](C)O)NC(=O)[C@H](CCCNC(=N)N)NC(=O)[C@H](CO)NC3=O)NC(=O)[C@H](CCCCN)NC(=O)[C@H](CC(=O)O)NC(=O)[C@H](CC(N)=O)NC(=O)[C@H](CC(=O)O)NC(=O)[C@@H]2CCCN2C1=O", "note": "[compound 56] (H-DCLGFMRKCIPDNDKCCRPNLVCSRTHKKCKYVF-NH2; disulfide 2-17, 9-23, 16-30)", "values": [{"measurement": "IC50", "setting": "[1]", "result": 20.1, "unit": "µM"}, {"measurement": "IC50", "setting": "[2]; IWQ Use Nav1.5 (μM)", "result": 14.7, "unit": "µM"}, {"measurement": "IC50", "setting": "[3]", "result": 24.5, "unit": "µM"}]}
{"smiles": "CC[C@H](C)[C@@H]1NC(=O)[C@@H]2CSSC[C@@H]3NC(=O)[C@H](C(C)C)NC(=O)[C@H](CC(C)C)NC(=O)[C@H](CC(N)=O)NC(=O)[C@@H]4CCCN4C(=O)[C@H](CCCNC(=N)N)NC(=O)[C@H](CSSC[C@H](NC(=O)[C@@H](N)CC(=O)O)C(=O)N[C@@H](CC(C)C)C(=O)NCC(=O)N[C@@H](Cc4ccccc4)C(=O)N[C@@H](CCSC)C(=O)N[C@@H](CCCNC(=N)N)C(=O)N[C@@H](CCCCN)C(=O)N2)NC(=O)[C@H](CSSC[C@@H](C(=O)N[C@@H](CCCCN)C(=O)N[C@@H](CCCCN)C(=O)N[C@H](C(=O)N[C@@H](Cc2ccccc2)C(N)=O)C(C)C)NC(=O)[C@H](Cc2c[nH]c4ccccc24)NC(=O)[C@H](CCCCN)NC(=O)[C@H](Cc2cnc[nH]2)NC(=O)[C@H]([C@@H](C)O)NC(=O)[C@H](CCCNC(=N)N)NC(=O)[C@H](CO)NC3=O)NC(=O)[C@H](CCCCN)NC(=O)[C@H](CC(=O)O)NC(=O)[C@H](CC(N)=O)NC(=O)[C@H](CC(=O)O)NC(=O)[C@@H]2CCCN2C1=O", "note": "[compound 57] (H-DCLGFMRKCIPDNDKCCRPNLVCSRTHKWCKKVF-NH2; disulfide 2-17, 9-23, 16-30)", "values": [{"measurement": "IC50", "setting": "[1]; Table 25, IonWorks Quattro, use, […], read-out: IWQ Use Nav1.7", "result": 4.96, "unit": "µM"}, {"measurement": "IC50", "setting": "[2]; Table 25, IonWorks Quattro, use, […], read-out: IWQ Use Nav1.5", "result": 10.9, "unit": "µM"}, {"measurement": "IC50", "setting": "[3]; Table 25, IonWorks Quattro, use, […], read-out: IWQ Use Nav1.3", "result": 4.19, "unit": "µM"}]}
{"smiles": "CC[C@H](C)[C@@H]1NC(=O)[C@@H]2CSSC[C@@H]3NC(=O)[C@H](C(C)C)NC(=O)[C@H](CC(C)C)NC(=O)[C@H](CC(N)=O)NC(=O)[C@@H]4CCCN4C(=O)[C@H](CCCNC(=N)N)NC(=O)[C@H](CSSC[C@H](NC(=O)[C@@H](N)CC(=O)O)C(=O)N[C@@H](CC(C)C)C(=O)NCC(=O)N[C@@H](Cc4ccccc4)C(=O)N[C@@H](CCSC)C(=O)N[C@@H](CCCNC(=N)N)C(=O)N[C@@H](CCCCN)C(=O)N2)NC(=O)[C@H](CSSC[C@@H](C(=O)N[C@@H](CCCCN)C(=O)N[C@@H](Cc2ccc(O)cc2)C(=O)N[C@@H](CCCCN)C(=O)N[C@@H](Cc2ccccc2)C(N)=O)NC(=O)[C@H](Cc2c[nH]c4ccccc24)NC(=O)[C@H](CCCCN)NC(=O)[C@H](Cc2cnc[nH]2)NC(=O)[C@H]([C@@H](C)O)NC(=O)[C@H](CCCNC(=N)N)NC(=O)[C@H](CO)NC3=O)NC(=O)[C@H](CCCCN)NC(=O)[C@H](CC(=O)O)NC(=O)[C@H](CC(N)=O)NC(=O)[C@H](CC(=O)O)NC(=O)[C@@H]2CCCN2C1=O", "note": "[compound 58] (H-DCLGFMRKCIPDNDKCCRPNLVCSRTHKWCKYKF-NH2; disulfide 2-17, 9-23, 16-30)", "values": [{"measurement": "IC50", "setting": "[1]; Table 26, IonWorks Quattro, use, […], read-out: IWQ Use Nav1.7", "result": 0.07, "unit": "µM"}, {"measurement": "IC50", "setting": "[2]; Table 26, IonWorks Quattro, use, […], read-out: IWQ Use Nav1.5", "result": 9.56, "unit": "µM"}, {"measurement": "IC50", "setting": "[3]; Table 26, IonWorks Quattro, use, […], read-out: IWQ Use Nav1.3", "result": 0.07, "unit": "µM"}]}
{"smiles": "CC[C@H](C)[C@@H]1NC(=O)[C@@H]2CSSC[C@@H]3NC(=O)[C@H](C(C)C)NC(=O)[C@H](CC(C)C)NC(=O)[C@H](CC(N)=O)NC(=O)[C@@H]4CCCN4C(=O)[C@H](CCCNC(=N)N)NC(=O)[C@H](CSSC[C@H](NC(=O)[C@@H](N)CC(=O)O)C(=O)N[C@@H](CC(C)C)C(=O)NCC(=O)N[C@@H](Cc4ccccc4)C(=O)N[C@@H](CCSC)C(=O)N[C@@H](CCCNC(=N)N)C(=O)N[C@@H](CCCCN)C(=O)N2)NC(=O)[C@H](CSSC[C@@H](C(=O)N[C@@H](CCCCN)C(=O)N[C@@H](Cc2ccc(O)cc2)C(=O)N[C@H](C(=O)N[C@@H](CCCCN)C(N)=O)C(C)C)NC(=O)[C@H](Cc2c[nH]c4ccccc24)NC(=O)[C@H](CCCCN)NC(=O)[C@H](Cc2cnc[nH]2)NC(=O)[C@H]([C@@H](C)O)NC(=O)[C@H](CCCNC(=N)N)NC(=O)[C@H](CO)NC3=O)NC(=O)[C@H](CCCCN)NC(=O)[C@H](CC(=O)O)NC(=O)[C@H](CC(N)=O)NC(=O)[C@H](CC(=O)O)NC(=O)[C@@H]2CCCN2C1=O", "note": "[compound 59] (H-DCLGFMRKCIPDNDKCCRPNLVCSRTHKWCKYVK-NH2; disulfide 2-17, 9-23, 16-30)", "values": [{"measurement": "IC50", "setting": "[1]; IonWorks Quattro, use-dependent, […], read-out: IWQ Use Nav1.7", "result": 5.68, "unit": "µM"}, {"measurement": "IC50", "setting": "[2]; IonWorks Quattro, use-dependent, […], read-out: IWQ Use Nav1.5", "result": 18.1, "unit": "µM"}, {"measurement": "IC50", "setting": "[3]; IonWorks Quattro, use-dependent, […], read-out: IWQ Use Nav1.3", "result": 7.74, "unit": "µM"}]}
